Source: patent US20030113813A1, “Methods and devices for the integrated discovery of cell culture environments” (priority 2001, published 2003)

Test system: MC3T3-E1 cells
Assay: Cell attachment and growth on modified (HA-coated, periodate-oxidized) surfaces carrying bioactive agents
Type: cell-based, murine
Conditions: for cell attachment and growth: FIG. 4A, immobilized HA surface treated with lowest (3 mM) periodate concentration, collagen 3.2 mg/ml, laminin 2 mg/ml
Excerpt: MC3T3-E1 cells were used to determine the effect of different bioactive agents for creation of bioactive surfaces influencing the growth and differentiation of these osteoblasts (also considered to be osteogenic stem cells). These cells are from a clonal line of murine calvaria-derived osteoblast (establishment of a clonal osteogenic cell line from newborn mouse calvaria describe in J Oral Biol 23:899 (1981)). The cells are maintained in α-MEM (GIBCO Catalog #12561) supplemented with 2% fetal calf serum (FCS; inactivated) and 100 units or μg/ml penicillin/streptomycin.
The cells were seeded at a concentration of approximately 10^4 cells/20 ml culture medium in a 250 ml canted neck polystyrene tissue culture-treated flask. Cells were cultured until they reach about 2×10^6 cells/flask. Cells were harvested and resuspended in 5 ml of α-MEM with 2% FCS to a final cell concentration of about 4×10^4 cells/100 μl.
The surface modified slide was placed into a polystyrene Petri dish and covered with the cells for 30 minutes. […] To quantitate cell attachment and growth, an image of the slide or other surface after staining with hematoxylin/eosin was captured using a color scanner, and the density determined using the Scion Image analysis program.

Row | Substance | cell growth on ECM peptide surface vs. control surface (FIGS. 4B-4F, RGDSP 1 mg/ml deposited on oxidized HA surface) | cell density on bioactive agent (FIG. 2, cells grown on microarray of bioactive agents coupled to HA surface, fluorescent staining) | cell attachment and growth
1 | Arg-Gly-Asp-Ser-Pro (RGDSP) (printed: Arg-Gly-Asp-Ser-Pro) [ECM adhesion peptide from AnaSpec Inc, reference compound] | cells grew only on the surfaces onto which RGDSP was deposited |  | 
2 | laminin |  | cell density was greater on Vitrogen™ than on laminin | supported cell attachment and growth
3 | collagen |  |  | supported cell attachment and growth
